Values of other authors, collected in US12070034B2, “Synergistic herbicidal combinations” (UPL LTD, priority 2017, dated 2024).

Settings: acid form, before neutralisation with ammonium phosphate dibasic

SMILES: O=C(O)COc1ccc(Cl)cc1Cl [2,4-D acid]
- solubility: 311 mg/I

SMILES: Nc1c(Cl)c(Cl)nc(C(=O)O)c1Cl [Picloram acid]
- solubility: 560 mg/I
